Source: PubChem BioAssay (NCI)
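Results reflect a 48-hour exposure of cells in 96-well plates to compound at five concentrations. GI50 = concentration required for 50% inhibition of growth. At the TGI there is no net growth.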

Legend:
Experiment in all cases: NCI tumour cell line growth inhibition, 48 h
NCI-H226 lung = test system: NCI-H226 lung
A549 NSCLC = test system: A549 NSCLC
OVCAR-4 ovarian = test system: OVCAR-4 ovarian
IGROV1 ovarian = test system: IGROV1 ovarian
BT-549 breast = test system: BT-549 breast
HT29 colon = test system: HT29 colon
UACC-62 melanoma = test system: UACC-62 melanoma
UO-31 renal = test system: UO-31 renal
MOLT-4 leukemia = test system: MOLT-4 leukemia
T-47D breast = test system: T-47D breast
HCC-2998 colon = test system: HCC-2998 colon
ACHN renal = test system: ACHN renal
786-0 renal = test system: 786-0 renal
SF-295 CNS = test system: SF-295 CNS
HCT-116 colon = test system: HCT-116 colon
U251 CNS = test system: U251 CNS
OVCAR-5 ovarian = test system: OVCAR-5 ovarian
SR leukemia = test system: SR leukemia
RXF 393 renal = test system: RXF 393 renal
MALME-3M melanoma = test system: MALME-3M melanoma
KM12 colon = test system: KM12 colon
MDA-MB-435 = test system: MDA-MB-435
MCF7 breast = test system: MCF7 breast
SK-OV-3 ovarian = test system: SK-OV-3 ovarian
HOP-92 NSCLC = test system: HOP-92 NSCLC
UACC-257 melanoma = test system: UACC-257 melanoma
K-562 leukemia = test system: K-562 leukemia
COLO 205 colon = test system: COLO 205 colon
OVCAR-3 ovarian = test system: OVCAR-3 ovarian

Compound: N#CC1=C(c2cccs2)Nc2c(c(-c3ccccc3)nn2-c2ccccc2)C12C(=O)Nc1ccccc12 (stereo not drawn)
- GI50 (NCI-H226 lung): 16.9 µM
- TGI (NCI-H226 lung): 42.5 µM
- GI50 (A549 NSCLC): 10.2 µM
- TGI (A549 NSCLC): 23 µM
- GI50 (OVCAR-4 ovarian): 8.25 µM
- TGI (OVCAR-4 ovarian): 27 µM
- GI50 (IGROV1 ovarian): 16.2 µM
- TGI (IGROV1 ovarian): 34.4 µM
- GI50 (BT-549 breast): 5.86 µM
- TGI (BT-549 breast): 21 µM
- GI50 (HT29 colon): 14 µM
- TGI (HT29 colon): 28.3 µM
- GI50 (UACC-62 melanoma): 13.7 µM
- TGI (UACC-62 melanoma): 27.9 µM
- GI50 (UO-31 renal): 9.9 µM
- TGI (UO-31 renal): > 100 µM
- GI50 (MOLT-4 leukemia): 12 µM
- TGI (MOLT-4 leukemia): 41.1 µM
- GI50 (T-47D breast): 18.2 µM
- TGI (T-47D breast): 69.2 µM
- GI50 (HCC-2998 colon): 14 µM
- TGI (HCC-2998 colon): 35.6 µM
- GI50 (ACHN renal): 12.6 µM
- TGI (ACHN renal): 26.4 µM
- GI50 (786-0 renal): 15.6 µM
- TGI (786-0 renal): 31.1 µM
- GI50 (SF-295 CNS): 12.8 µM
- TGI (SF-295 CNS): 33.3 µM
- GI50 (HCT-116 colon): 11.9 µM
- TGI (HCT-116 colon): 28.1 µM
- GI50 (U251 CNS): 6.23 µM
- TGI (U251 CNS): 20.6 µM
- GI50 (OVCAR-5 ovarian): 19.8 µM
- TGI (OVCAR-5 ovarian): 45.6 µM
- GI50 (SR leukemia): 12.7 µM
- TGI (SR leukemia): 58.1 µM
- GI50 (RXF 393 renal): 4.91 µM
- TGI (RXF 393 renal): 21.1 µM
- GI50 (MALME-3M melanoma): 15.9 µM
- TGI (MALME-3M melanoma): 30 µM
- GI50 (KM12 colon): 5.13 µM
- TGI (KM12 colon): 20.4 µM
- GI50 (MDA-MB-435): 17.8 µM
- TGI (MDA-MB-435): 37.2 µM
- GI50 (MCF7 breast): 12.8 µM
- TGI (MCF7 breast): 26.5 µM
- GI50 (SK-OV-3 ovarian): 13.7 µM
- TGI (SK-OV-3 ovarian): 33.2 µM
- GI50 (HOP-92 NSCLC): 3.52 µM
- TGI (HOP-92 NSCLC): 15 µM
- GI50 (UACC-257 melanoma): 18.1 µM
- TGI (UACC-257 melanoma): 48.3 µM
- GI50 (K-562 leukemia): 6.17 µM
- TGI (K-562 leukemia): 38.9 µM
- GI50 (COLO 205 colon): 15.5 µM
- TGI (COLO 205 colon): 34.9 µM
- GI50 (OVCAR-3 ovarian): 20.9 µM
- TGI (OVCAR-3 ovarian): 73.2 µM
